Results reported in patent US8232278B2 (Gilead Sciences, Inc., priority 2005, dated 2012).
“And” between values parts separate entries of the source, which are not always exact repeats. Identical values can stand only once. Like-named read-outs stand apart in the source and are kept apart here.

Tests used:
[1] = CC50 assay in Huh-7 HCV replicon cells (CellTiter-Glo); type: cell-based, human; conditions: human, 50% cytostatic concentration
Procedure: (§1) The anti-HCV activity of the pyrido[3,2-d]pyrimidine derivatives of this invention was tested in a human hepatoma Huh-7 cell line harbouring a HCV replicon. The assay comprised the following steps:
(§2) Step 1: Compound Preparation and Serial Dilution
(§3) • 1. for water soluble pyrido[3,2-d]pyrimidine derivatives, a volume of 500 μL of solution in cell media (DMEM, 10% FBS, P/S, L-Glutamine) was prepared with a concentration being twice the concentration of the starting final serial dilution concentration. […] The rest of the plate, columns 2-12, was filled with 100 μL of cell media. The plate was then placed on a Precision 2000 Workstation to start the serial dilution. Compounds were diluted three times each step from column 1 to column 10. Column 11 was used as a blank control (no compound added). • 2. for pyrido[3,2-d]pyrimidine derivatives requiring DMSO to dissolve, serial dilution is performed in 50% DMSO in a 384-well plate. A solution containing a compound at 100-fold concentration of the starting final serial dilution concentration was prepared in 50% DMSO and added to the pre-specified wells in column 1 of a polypropylene 384-well plate. The plate was then placed on a Precision 2000 Workstation to start the serial dilution. After the serial dilution, a volume of 2 μL of the solution was transferred from the 384-well plate to a 96-well cell culture plate containing 100 μL of cell media on a Biomek FX Workstation. The DMSO concentration in the final assay condition was 0.5% after cells are added to the plate and the total volume in each well is brought to 200 μL. Step 2: to each well of the serial dilution plate prepared above, 100 μL of cell media containing 6000 suspended Huh-7 HCV replicon cells was added with a Multidrop workstation. The plates were incubated for 3 days at 37° C. with 5% CO2. Step 3: Detection: • a) for the EC50 assay, the media in a 96-well cell culture plate was aspirated with a Biotek EL405 plate-washer. A volume of 200 μL of a solution containing a 1:1 mixture of cell-lysis buffer (Promega, Luciferase Cell Culture Lysis 5× Reagent, cat. #E1531) and luciferase substrate solution (Promega, Luciferase Assay, cat. #E4550) was added to each well of the plate with Multidrop.
(§4) Results in table 7 are expressed by the following data: • the 50% effective concentration (EC50), i.e. the concentration that protects 50% of the cell monolayer from virus-induced cythopathic effect, and • the 50% cytostatic concentration (CC50), i.e. the concentration that results in 50% inhibition of cell growth. Table 7 further indicates the nature of substituents being present in positions 2, 4 and 6 of the pyrido[3,2-d]pyrimidine derivatives of the invention.

HCV replicon = assay: Anti-HCV assay / replicon assay (EC50, luciferase read-out); type: cell-based, hepatitis C virus (HCV); conditions: for CC50/EC50: CC50/EC50 ratio (selectivity index)
Procedure: as §1, §2, §3, §4

Huh-7 HCV replicon cells = assay: CC50 assay in Huh-7 HCV replicon cells (CellTiter-Glo); type: cell-based, human; conditions: 3 days, 50% cytostatic concentration
Procedure: as §1, §2, §3, §4

[2] = Hepatitis C virus, 72 h, human hepatoma Huh-7 cell line harbouring a HCV replicon, 3 days, luciferase luminescence, read-out: EC50
[3] = human hepatoma Huh-7 cell line harbouring a HCV replicon, 3 days, luciferase luminescence, read-out: EC50

Structure (SMILES) | CC50 at 3 days [1] | CC50/EC50 (HCV replicon) | EC50 (HCV replicon; [2]) | CC50 (Huh-7 HCV replicon cells) | EC50 (HCV replicon; [3]) | EC50 (HCV replicon; Hepatitis C virus, Huh-7, 72 h)
COc1ccc(-c2ccc3nc(N)nc(Nc4cccc(Br)c4)c3n2)cc1OC [Example 34, 2-amino-4-(3-bromo-anilino)-6-(3,4-dimethoxyphenyl)pyrido[3,2-d]-pyrimidine] | 7700 nM | 151 | 51 nM | – | – | –
CC(=O)N1CCN(c2nc(N)nc3ccc(-c4ccc5c(c4)OCO5)nc23)CC1 [Example 184, 2-amino-4-[N-acetyl-piperazin-1-yl]-6-(3,4-methylenedioxyphenyl)-pyrido[3,2-d]pyrimidine] | 21800 nM | 128 | 170 nM | – | – | –
Nc1nc(N2CCN(C(=O)COc3ccc(Cl)cc3)CC2)c2nc(-c3ccc4c(c3)OCO4)ccc2n1 [Example 187, 2-amino-4-[N-(4-chlorophenoxy-acetyl)-piperazin-1-yl]-6-(3,4-methylenedioxyphenyl)-pyrido[3,2-d]pyrimidine] | 1200 nM | 64 | 19 nM | – | – | –
Nc1nc(N2CCN(C(=O)COc3ccc(Cl)cc3)CC2)c2nc(-c3ccc(F)cc3)ccc2n1 [Example 201, 2-amino-4-[(N-4-chloro-phenoxy-acetyl)-piperazin-1-yl]-6-(4-fluorophenyl)-pyrido[3,2-d]pyrimidine] | – | 558 | – | 25100 nM | 45 nM | –
CCCOc1nc(N)nc2ccc(-c3ccccc3F)nc12 [Example 282, 2-amino-4-n-propoxy-6-(o-fluorophenyl)-pyrido[3,2-d]pyrimidine] | – | 89 | 560 nM | 50100 nM | – | –
CCCCCOc1nc(N)nc2ccc(-c3ccccc3F)nc12 [Example 297, 2-amino-4-n-pentyloxy-6-(o-fluorophenyl)pyrido[3,2-d]-pyrimidine] | – | 66 | 760 nM | 50100 nM | – | –
CCOc1nc(N)nc2ccc(-c3ccc(OC)c(OC)c3)nc12 [Example 307, 2-amino-4-ethoxy-6-(3,4-dimethoxy)pyrido[3,2-d]pyrimidine] | – | 264 | – | 50100 nM | 190 nM | –
N#Cc1ccc(-c2ccc3nc(N)nc(N4CCN(C(=O)COc5ccc(Cl)cc5)CC4)c3n2)cc1 [Example 378, 2-amino-4-[N-(4-chlorophenoxyacetyl)piperazin-1-yl]-6-(4-cyanophenyl)pyrido-[3,2-d]pyrimidine] | – | 571 | – | 4300 nM | 8 nM | –
Nc1nc(N2CCN(C(=O)COc3ccc(Cl)cc3)CC2)c2nc(-c3ccc(C(F)(F)F)cc3)ccc2n1 [Example 379, 2-amino-4-[N-(4-chlorophenoxyacetyl)piperazin-1-yl]-6-(4-trifluoromethylphenyl)-pyrido-[3,2-d]pyrimidine] | – | 287 | – | 21600 nM | 75 nM | –
Nc1nc(N2CCN(C(=O)COc3ccc(Cl)cc3)CC2)c2nc(-c3ccoc3)ccc2n1 [Example 381, 2-amino-4-[N-(4-chlorophenoxyacetyl)piperazin-1-yl]-6-(furan-3-yl)pyrido-[3,2-d]pyrimidine] | – | 149 | – | 9100 nM | 61 nM | –
Nc1nc(N2CCN(C(=O)COc3ccc(Cl)cc3)CC2)c2nc(-c3ccsc3)ccc2n1 [Example 382, 2-amino-4-[N-(4-chlorophenoxyacetyl)piperazin-1-yl]-6-(thiophen-3-yl)pyrido-[3,2-d]pyrimidine] | – | 1523 | – | 13100 nM | 9 nM | –
Nc1nc(N2CCN(C(=O)COc3ccc(Cl)cc3)CC2)c2nc(-c3ccc(Cl)cc3)ccc2n1 [Example 384, 2-amino-4-[N-(4-chlorophenoxyacetyl)piperazin-1-yl]-6-(4-chlorophenyl)pyrido-[3,2-d]pyrimidine] | – | 231 and 148 | – | 12200 nM and 7900 nM | 53 nM | –
Nc1nc(N2CCN(C(=O)COc3ccc(Cl)cc3)CC2)c2nc(-c3cccc(Cl)c3)ccc2n1 [Example 385, 2-amino-4-[N-(4-chlorophenoxyacetyl)piperazin-1-yl]-6-(3-chlorophenyl)pyrido-[3,2-d]pyrimidine] | – | 122 | – | 7400 nM | 61 nM | –
Nc1nc(N2CCN(C(=O)COc3ccc(Cl)cc3)CC2)c2nc(-c3ccncc3)ccc2n1 [Example 386, 2-amino-4-[N-(4-chlorophenoxyacetyl)piperazin-1-yl]-6-(pyridin-4-yl)pyrido-[3,2-d]pyrimidine] | – | 4585 | – | 6000 nM | 1 nM | –
Nc1nc(N2CCN(C(=O)COc3ccc(Cl)cc3)CC2)c2nc(-c3ccc(F)c(Cl)c3)ccc2n1 [Example 387, 2-amino-4-[N-(4-chlorophenoxyacetyl)piperazin-1-yl]-6-(3-chloro-4-fluorophenyl)-pyrido-[3,2-d]pyrimidine] | – | 280 | – | 5900 nM | 21 nM | –
Cc1cccc(NC(=O)N2CCN(c3nc(N)nc4ccc(-c5ccccc5)nc34)CC2)c1 [Example 389, 2-amino-4-[N-(3-methyl-phenyl-carbamoyl)-piperazin-1-yl]-6-phenyl-pyrido[3,2-d]pyrimidine] | – | 200 | – | 4200 nM | 21 nM | –
Cc1cccc(NC(=O)N2CCN(c3nc(N)nc4ccc(-c5ccc(F)cc5)nc34)CC2)c1 [Example 390, 2-amino-4-[N-(3-methylphenyl-carbamoyl)-piperazin-1-yl]-6-(4-fluorophenyl)-pyrido[3,2-d]pyrimidine] | – | 575 | – | 3500 nM | 6 nM | –
CSc1nc(N)nc2ccc(-c3ccc(F)cc3)nc12 [Example 392, 2-amino-4-thiomethyl-6-(4-fluorophenyl)-pyrido(3,2-d)pyrimidine] | – | 512 | – | 25100 nM | 49 nM | –
CCSc1nc(N)nc2ccc(-c3ccc(F)cc3)nc12 [Example 393, 2-amino-4-thioethyl-6-(4-fluorophenyl)pyrido(3,2-d)pyrimidine] | – | 154 | – | 36000 nM | 234 nM | –
CC(C)Sc1nc(N)nc2ccc(-c3ccc(F)cc3)nc12 [Example 394, 2-amino-4-thioisopropyl-6-(4-fluorophenyl)pyrido(3,2-d)pyrimidine] | – | 268 | – | 50100 nM | 187 nM | –
Nc1nc(N2CCS(=O)(=O)CC2)c2nc(-c3ccc(F)cc3)ccc2n1 [Example 406, 2-amino-4-(thiomorpholino-1,1-dioxide)-6-(4-fluorophenyl)pyrido[3,2-d]pyrimidine] | – | 1931 | – | 25100 nM | 13 nM | –
CS(=O)(=O)CCNc1nc(N)nc2ccc(-c3ccc(F)cc3)nc12 [Example 415, 2-amino-4-[(2-aminoethyl)methylsulfone]-6-(4-fluorophenyl)pyrido[3,2-d]pyrimidine] | – | 118 | – | 11700 nM | 99 nM | –
CCOc1nc(N)nc2ccc(-c3ccc(F)c(Cl)c3)nc12 [Example 462, 6-(3-chloro-4-fluoro-phenyl)-4-ethoxy-pyrido[3,2-d]pyrimidin-2-ylamine] | – | 117 | – | 50100 nM | – | 428 nM
CCOc1nc(N)nc2ccc(-c3ccc(Cl)cc3)nc12 [Example 463, 6-(4-chloro-phenyl)-4-ethoxy-pyrido[3,2-d]pyrimidin-2-ylamine] | – | 98 | – | 50100 nM | – | 511 nM
CCOc1nc(N)nc2ccc(-c3ccc(N)cc3)nc12 [Example 465, 6-(4-amino-phenyl)-4-ethoxy-pyrido[3,2-d]pyrimidin-2-ylamine] | – | 145 | – | 50100 nM | – | 346 nM
CCOc1nc(N)nc2ccc(-c3cccs3)nc12 [Example 467, 4-Ethoxy-6-thiophen-2-yl-pyrido[3,2-d]pyrimidin-2-ylamine] | – | 113 | 443 nM | 50100 nM | – | –
CCOc1nc(NC(C)=O)nc2ccc(-c3ccc(F)cc3)nc12 [NHCOMe/OEt/(4-F)Ph] | – | 170 | – | 25100 nM | 148 nM | –
